Laboratory results reported in US20250092065A1, “2-(INDAZOL-5-YL)-6-(PIPERIDIN-4-YL)-1,7-NAPHTHYRIDINE DERIVATIVES AND RELATED COMPOUNDS AS MODULATORS FOR SPLICING NUCLEIC ACIDS AND FOR THE TREATMENT OF PROLIFERATIVE DISEASES” (REMIX THERAPEUTICS INC., priority 2022, published 2025).
Where two headings read alike, the source gives them in different places.

What was measured:
MYB mRNA = test: RT-qPCR splicing assay, MYB mRNA canonical (CJ) and alternative (AJ) junction; assay type: cell-based, human; conditions: Homo sapiens; for AC50: MYB alternative junction mRNA, read-out: MYB AJ (increase in AJ mRNA, AC50)
Procedure, shortened: (§1)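 A673 or K562 cells treated 24 h at 37 °C with 11-point 3-fold dilutions (top final 10 uM, DMSO ≤0.25%). Lysates analysed by one-step RT-qPCR for canonical (CJ) and alternative-exon (AJ) junctions, normalized to GAPDH, GUSB or PPIA. ΔΔCt vs DMSO, RQ = 2^(−ΔΔCt), expressed as percentage response.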

MYB = test: HiBiT protein abundance assay, MYB (K562 HiBiT knock-in); assay type: cell-based, human; conditions: HiBiT knock-in K562 cells, 24 hours, top dose 10 μM
Procedure, shortened: (§2)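 Endogenously HiBiT-tagged K562 lines were treated for 24 h at 37 °C with 10-point 3-fold dilutions (top 10 μM final, DMSO ≤0.25%). Lytic LgBiT complementation luminescence was normalized between unmodified K562 (PC) and DMSO-treated tagged cells (NC); IC50 was interpolated at 50% from a four-parameter logistic fit.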

Target C = test: HiBiT protein abundance assay, Target C (K562 HiBiT knock-in); assay type: cell-based, human; conditions: HiBiT knock-in K562 cells, 24 hours, top dose 10 μM
Procedure, shortened: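 K562 HiBiT knock-in cells (10000/well) were treated 24 h at 37° C with a 10-point 3-fold dilution series (top 10 μM final, ≤0.25% DMSO). HiBiT luminescence was read after lytic LgBiT detection. Percent response used unmodified K562 and DMSO-treated knock-in controls, and IC50 came from a four-parameter fit at 50% of untreated.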

HTT = test: HiBiT protein abundance assay, HTT (K562 HiBiT knock-in); assay type: cell-based, human; conditions: HiBiT knock-in K562 cells, 24 hours, top dose 10 μM
Procedure, shortened: as §2

HTT mRNA = test: RT-qPCR splicing assay, HTT mRNA canonical (CJ) and alternative (AJ) junction; assay type: cell-based, human; conditions: Homo sapiens; for AC50: HTT alternative junction mRNA, read-out: HTT AJ (increase in AJ mRNA, AC50)
Procedure, shortened: as §1

SMN2 mRNA = test: RT-qPCR splicing assay, SMN2 mRNA; assay type: cell-based, human; conditions: Homo sapiens, canonical junction qPCR panel, Table 4; read-out: SMN2 IC50 (decrease in CJ mRNA levels)
Procedure, shortened: as §1

K562 cells = test: Cell Titer Glo 2.0 cell viability (toxicity) assay, K562; conditions: 500 cells/well, 72 hours
[1] = MYB canonical junction mRNA, RT-qPCR, read-out: MYB CJ (decrease in CJ mRNA levels, IC50)
[2] = canonical junction qPCR panel, Table 4, read-out: MYB IC50 (decrease in CJ mRNA levels)
[3] = HTT canonical junction mRNA, RT-qPCR, read-out: HTT CJ (decrease in CJ mRNA levels, IC50)
[4] = canonical junction qPCR panel, Table 4, read-out: HTT IC50 (decrease in CJ mRNA levels)

Compound	IC50 (MYB mRNA; [1])	IC50 (MYB mRNA; [2])	IC50 (MYB)	IC50 (Target C)	IC50 (HTT)	IC50 (HTT mRNA; [3])	IC50 (HTT mRNA; [4])	IC50 (SMN2 mRNA)	AC50 (MYB mRNA; RT-qPCR)	AC50 (HTT mRNA; RT-qPCR)	Effect of Exemplary Compounds on Cell Viability, K562 (K562 cells)
CC(C)(C)NC1CCN(c2ccc3nc(-c4cc5cnccc5cc4O)ccc3n2)C1 (stereo not shown) [Compound 166]	> 10000 nM	> 10000 nM	> 10000 nM	1000 to 10000 nM	> 10000 nM	> 10000 nM	> 10000 nM	> 10000 nM	> 10000 nM	> 10000 nM	B (B represents 100-1000 nM)
Cn1cnc2cc(-c3ccc4nc(N5CCC(NC(C)(C)C)C5)ccc4n3)c(O)cc2c1=O (stereo not shown) [Compound 167]	> 10000 nM	> 10000 nM	> 10000 nM	> 10000 nM	> 10000 nM	> 10000 nM	> 10000 nM	> 10000 nM	> 10000 nM	> 10000 nM	B (B represents 100-1000 nM)
COc1cc2c(=O)n(C)cnc2cc1-c1ccc2nc(N3CCC(NC(C)(C)C)C3)ccc2n1 (stereo not shown) [Compound 168]	> 10000 nM	> 10000 nM	> 10000 nM	> 10000 nM	> 10000 nM	> 10000 nM	> 10000 nM	> 10000 nM	> 10000 nM	> 10000 nM	D (D represents greater than 10 μM in K562 cells)
CN1CCC2(CC1)CCN2c1ccc2nc(-c3cc4cn(C)nc4cc3O)ccc2n1 [Compound 169]	> 10000 nM	> 10000 nM	1000 to 10000 nM	> 10000 nM	1000 to 10000 nM	> 10000 nM	> 10000 nM	1000 to 10000 nM	> 10000 nM	> 10000 nM	B (B represents 100-1000 nM)
Cc1cc(=O)c2cc(O)c(-c3ccc4nc(N5CCC(NC(C)(C)C)C5)ccc4n3)cc2o1 (stereo not shown) [Compound 174]	> 10000 nM	> 10000 nM	> 10000 nM	> 10000 nM	> 10000 nM	> 10000 nM	> 10000 nM	> 10000 nM	> 10000 nM	> 10000 nM	A (A represents <100 nM)
Cc1nc2cc(O)c(-c3ccc4nc(N5CCC(NC(C)(C)C)C5)ccc4n3)cc2o1 (stereo not shown) [Compound 175]	< 100 nM	< 100 nM	< 100 nM	< 100 nM	< 100 nM	< 100 nM	< 100 nM	< 100 nM	< 100 nM	< 100 nM	B (B represents 100-1000 nM)
COc1cc2nc(C)sc2cc1-c1ccc2nc(N3CCC(NC(C)(C)C)C3)ccc2n1 (stereo not shown) [Compound 176]	1000 to 10000 nM	1000 to 10000 nM	1000 to 10000 nM	1000 to 10000 nM	1000 to 10000 nM	1000 to 10000 nM	1000 to 10000 nM	1000 to 10000 nM	1000 to 10000 nM	1000 to 10000 nM	C (C represents 1000-9999 nM)
COc1cc2nc(C)oc2cc1-c1ccc2nc(N3CCC(NC(C)(C)C)C3)ccc2n1 (stereo not shown) [Compound 177]	1000 to 10000 nM	1000 to 10000 nM	1000 to 10000 nM	1000 to 10000 nM	1000 to 10000 nM	1000 to 10000 nM	1000 to 10000 nM	1000 to 10000 nM	1000 to 10000 nM	1000 to 10000 nM	C (C represents 1000-9999 nM)
Cn1cc2cc(-c3ccc4nc(N5CC[C@H](NCC(F)(F)F)C5)ccc4n3)c(O)cc2n1 [Compound 182]	1000 to 10000 nM	1000 to 10000 nM	> 10000 nM	> 10000 nM	> 10000 nM	1000 to 10000 nM	1000 to 10000 nM	1000 to 10000 nM	> 10000 nM	> 10000 nM	D (D represents greater than 10 μM in K562 cells)
Cc1cn2nc(-c3ccc4nc(N5CCC(NC(C)(C)C)C5)ccc4n3)cc2c(C)n1 (stereo not shown) [Compound 187]	100 to 1000 nM	100 to 1000 nM	100 to 1000 nM	< 100 nM	< 100 nM	< 100 nM	< 100 nM	< 100 nM	< 100 nM	< 100 nM	B (B represents 100-1000 nM)
Cn1cc2cc(-c3ccc4nc(N5CC[C@@H](NC6COC6)C5)ccc4n3)c(O)cc2n1 [Compound 188]	100 to 1000 nM	100 to 1000 nM	1000 to 10000 nM	1000 to 10000 nM	100 to 1000 nM	100 to 1000 nM	100 to 1000 nM	< 100 nM	100 to 1000 nM	100 to 1000 nM	C (C represents 1000-9999 nM)

Continued, in another order:

IC50 (MYB mRNA; [1])	IC50 (MYB mRNA; [2])	IC50 (MYB)	IC50 (Target C)	IC50 (HTT)	IC50 (HTT mRNA; [3])	IC50 (HTT mRNA; [4])	IC50 (SMN2 mRNA)	Compound	AC50 (MYB mRNA; RT-qPCR)	AC50 (HTT mRNA; RT-qPCR)	Effect of Exemplary Compounds on Cell Viability, K562 (K562 cells)
100 to 1000 nM	100 to 1000 nM	100 to 1000 nM	100 to 1000 nM	< 100 nM	< 100 nM	< 100 nM	< 100 nM	CN[C@H]1CCN(c2ccc3nc(-c4cc5cn(C)nc5cc4O)ccc3n2)C1 [Compound 170]	100 to 1000 nM	100 to 1000 nM	B (B represents 100-1000 nM)
< 100 nM	< 100 nM	< 100 nM	100 to 1000 nM	< 100 nM	< 100 nM	< 100 nM	< 100 nM	CN[C@@H]1CCN(c2ccc3nc(-c4cc5cn(C)nc5cc4O)ccc3n2)C1 [Compound 172]	< 100 nM	100 to 1000 nM	B (B represents 100-1000 nM)
< 100 nM	< 100 nM	< 100 nM	< 100 nM	< 100 nM	< 100 nM	< 100 nM	< 100 nM	CC(C)N[C@@H]1CCN(c2ccc3nc(-c4cc5cn(C)nc5cc4O)ccc3n2)C1 [Compound 173]	< 100 nM	< 100 nM	A (A represents <100 nM)
100 to 1000 nM	100 to 1000 nM	100 to 1000 nM	100 to 1000 nM	100 to 1000 nM	100 to 1000 nM	100 to 1000 nM	< 100 nM	Cn1cc2cc(-c3ccc4nc(N5CCC6(CCN6)C5)ccc4n3)c(O)cc2n1 (stereo not shown) [Compound 178]	100 to 1000 nM	100 to 1000 nM	B (B represents 100-1000 nM)
100 to 1000 nM	100 to 1000 nM	100 to 1000 nM	100 to 1000 nM	< 100 nM	< 100 nM	< 100 nM	< 100 nM	CCN[C@H]1CCN(c2ccc3nc(-c4cc5cn(C)nc5cc4O)ccc3n2)C1 [Compound 179]	< 100 nM	< 100 nM	B (B represents 100-1000 nM)
< 100 nM	< 100 nM	< 100 nM	100 to 1000 nM	< 100 nM	< 100 nM	< 100 nM	< 100 nM	CCN[C@@H]1CCN(c2ccc3nc(-c4cc5cn(C)nc5cc4O)ccc3n2)C1 [Compound 180]	< 100 nM	100 to 1000 nM	A (A represents <100 nM)
100 to 1000 nM	100 to 1000 nM	100 to 1000 nM	100 to 1000 nM	100 to 1000 nM	100 to 1000 nM	100 to 1000 nM	< 100 nM	Cn1cc2cc(-c3ccc4nc(C5CCNCC5)ccc4n3)ccc2n1 [Compound 184]	100 to 1000 nM	100 to 1000 nM	B (B represents 100-1000 nM)
1000 to 10000 nM	1000 to 10000 nM	1000 to 10000 nM	> 10000 nM	1000 to 10000 nM	1000 to 10000 nM	1000 to 10000 nM	100 to 1000 nM	Cn1cc2cc(-c3ccc4nc(C5CCNCC5)ccc4n3)cc(F)c2n1 [Compound 185]	1000 to 10000 nM	1000 to 10000 nM	C (C represents 1000-9999 nM)
100 to 1000 nM	100 to 1000 nM	1000 to 10000 nM	1000 to 10000 nM	1000 to 10000 nM	1000 to 10000 nM	1000 to 10000 nM	< 100 nM	Cn1cc2cc(-c3ccc4nc(N5CC[C@H](NC6COC6)C5)ccc4n3)c(O)cc2n1 [Compound 189]	100 to 1000 nM	100 to 1000 nM	D (D represents greater than 10 μM in K562 cells)
